Results: article PMC8290231 (Cancer Medicine, 2021)

What was measured:
[1] = system: Ba/F3‐FGFR1‐V561F xenograft; experiment: Mouse xenograft tumor model; assay type: in vivo, CB17‐SCID mice
Text: (§1) All animal studies were approved by the Institutional Animal Care and Use Committee. Male CB17‐SCID mice were purchased from Vital River Laboratory Animal Technology Inc. (Beijing, China). The right flanks of SCID mice were subcutaneously injected with 2 x 10^6 Ba/F3‐FGFR1, Ba/F3‐FGFR1‐V561F, or Ba/F3‐FGFR1‐V561M cells, respectively. When the average tumor volume reached 100–200 mm^3, mice bearing tumor were randomly divided into groups and treated with compounds or vehicle. All the compounds were suspended in 0.5% CMC‐Na aqueous solution. […] The body weight and tumor volume of animals were measured once every 2 days. Tumor volumes were calculated as L×W×W/2, where L and W are the length and width of the tumor, respectively. At the experiment terminal, tumor tissues were dissected, paraffin embedded, and sectioned for hematoxylin and eosin (H&E), immunohistochemistry (IHC), and TUNEL analysis.

[2] = system: Ba/F3‐FGFR1 xenograft; experiment: Mouse xenograft tumor model; assay type: in vivo, CB17‐SCID mice; conditions: for tumor growth inhibition (TGI): oral gavage
Text: as §1

[3] = system: A549; experiment: CCK-8 cell proliferation assay; assay type: cell-based; conditions: Homo sapiens, A549, 72 h, negative control; CCK-8, 72 h; read-out: antiproliferative IC50, A549
Procedure: (§2) The base medium for MDA‐MB‐453 cell line is DMEM medium (CORNING, USA). All other cell lines were cultured in RPMI‐1640 medium supplemented with 10% FBS, 100 U/ml of penicillin, and […] of streptomycin in 5% CO2 at 37℃. The cells in the logarithmic growth phase were used for the experiments.
(§3) Cells were seeded in 96‐well plate in complete medium (1000–6000 cells/well) and cultured for overnight. Then the cells were exposed to gradient concentrations (0.0005–10 μM) of compounds. Cell proliferation was analyzed by Cell Counting Kit 8 (CK04, Dojindo Laboratories, Japan) after co‐incubation for a further 72 h. IC50 values were calculated by fitting of concentration–response curves using GraphPad Prism 8.01 software. Each assay was repeated at least three times.
(§4) The expression and activation levels of FGFR1–4 in these cells were determined via western blot experiments (Figure S1).

[4] = system: FGFR1 signal pathway in Ba/F3‐FGFR1‐V561F; experiment: Western blot of FGFR1 signal pathway; assay type: cell-based
Procedure: (§5) Cells were treated with different concentrations of compound or DMSO for indicated time. Then, cells were lysed with 1 × SDS sample lysis buffer (recommended by CST). […] After blocking with 5% BSA in TBST solution (0.5% Tween‐20) at room temperature for 4 hrs, the membranes were incubated with the corresponding primary antibody (1:2000–1:200) at 4℃ overnight. After washing with TBST for 3–5 times, the HRP‐conjugated secondary antibodies were incubated for 2 hrs. The protein signals were detected with Amersham Imager 600 system (GE, Boston, MA, USA) using an ECL western blotting detection kit (Thermo Fisher Scientific, Waltham, MA, USA).
Cell lysates were separated by sodium dodecyl sulfate‐polyacrylamide gel electrophoresis (SDS‐PAGE) and analyzed by western blot for phosphorylated FGFR1, FGFR1, phosphorylated FRS2, FRS2, phosphorylated AKT (Ser473), AKT, phosphorylated Erk, and Erk. GAPDH was used as a control

[5] = target: T1, FGFR2‐N550K (Homo sapiens, UniProt P21802, N549K); experiment: KINOMEscan binding affinity assay
T1 construct: purchased KINOMEscan™ (commercial assay)
T1 sequence (P21802 22-822 isoform P21802-3 N550K limits assumed): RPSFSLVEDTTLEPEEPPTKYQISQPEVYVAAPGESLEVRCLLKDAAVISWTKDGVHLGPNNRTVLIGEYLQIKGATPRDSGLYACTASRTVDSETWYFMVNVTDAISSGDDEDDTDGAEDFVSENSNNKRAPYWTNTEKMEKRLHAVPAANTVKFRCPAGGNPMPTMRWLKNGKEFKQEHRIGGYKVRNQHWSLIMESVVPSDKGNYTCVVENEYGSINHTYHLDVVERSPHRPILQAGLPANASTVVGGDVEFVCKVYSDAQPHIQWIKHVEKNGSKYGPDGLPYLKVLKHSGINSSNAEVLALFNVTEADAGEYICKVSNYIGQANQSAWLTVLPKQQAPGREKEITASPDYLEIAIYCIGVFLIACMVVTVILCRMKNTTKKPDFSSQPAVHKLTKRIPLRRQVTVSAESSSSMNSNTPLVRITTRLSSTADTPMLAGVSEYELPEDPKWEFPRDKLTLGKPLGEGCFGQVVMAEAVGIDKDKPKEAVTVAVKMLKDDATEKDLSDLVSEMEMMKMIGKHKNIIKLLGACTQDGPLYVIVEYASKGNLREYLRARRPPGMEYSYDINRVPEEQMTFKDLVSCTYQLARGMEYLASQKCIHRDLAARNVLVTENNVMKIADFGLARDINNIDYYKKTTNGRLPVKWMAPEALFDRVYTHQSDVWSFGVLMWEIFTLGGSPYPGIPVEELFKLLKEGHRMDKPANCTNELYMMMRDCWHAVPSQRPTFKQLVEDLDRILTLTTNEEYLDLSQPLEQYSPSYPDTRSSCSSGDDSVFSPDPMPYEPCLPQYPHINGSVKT

[6] = target: T2, FGFR2 (Homo sapiens, UniProt P21802); experiment: KINOMEscan binding affinity assay
T2 sequence (P21802 22-821): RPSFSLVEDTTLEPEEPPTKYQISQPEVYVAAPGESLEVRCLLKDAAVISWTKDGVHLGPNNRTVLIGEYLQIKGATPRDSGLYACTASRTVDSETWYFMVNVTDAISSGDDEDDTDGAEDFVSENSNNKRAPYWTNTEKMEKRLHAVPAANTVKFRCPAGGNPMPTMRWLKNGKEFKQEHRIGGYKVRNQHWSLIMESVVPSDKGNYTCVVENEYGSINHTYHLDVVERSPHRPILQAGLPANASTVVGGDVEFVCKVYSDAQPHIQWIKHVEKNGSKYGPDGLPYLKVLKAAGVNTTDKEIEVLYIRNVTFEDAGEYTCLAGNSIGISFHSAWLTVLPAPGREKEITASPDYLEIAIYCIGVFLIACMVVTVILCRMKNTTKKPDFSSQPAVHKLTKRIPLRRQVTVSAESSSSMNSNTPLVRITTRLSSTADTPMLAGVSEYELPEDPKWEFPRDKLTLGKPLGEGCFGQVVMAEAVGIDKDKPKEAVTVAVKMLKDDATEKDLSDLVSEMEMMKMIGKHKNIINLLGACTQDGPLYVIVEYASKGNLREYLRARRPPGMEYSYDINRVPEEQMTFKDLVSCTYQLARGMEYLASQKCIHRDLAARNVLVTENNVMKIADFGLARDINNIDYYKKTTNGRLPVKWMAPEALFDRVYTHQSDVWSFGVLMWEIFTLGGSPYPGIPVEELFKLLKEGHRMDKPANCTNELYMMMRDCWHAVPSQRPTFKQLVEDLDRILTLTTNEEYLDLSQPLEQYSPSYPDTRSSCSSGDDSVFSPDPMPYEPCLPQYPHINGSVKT

[7] = target: FGFR4 (Homo sapiens, UniProt P22455); experiment: FRET-based Z′-Lyte kinase assay; assay type: biochemical
Chain of FGFR4 (P22455 22-802): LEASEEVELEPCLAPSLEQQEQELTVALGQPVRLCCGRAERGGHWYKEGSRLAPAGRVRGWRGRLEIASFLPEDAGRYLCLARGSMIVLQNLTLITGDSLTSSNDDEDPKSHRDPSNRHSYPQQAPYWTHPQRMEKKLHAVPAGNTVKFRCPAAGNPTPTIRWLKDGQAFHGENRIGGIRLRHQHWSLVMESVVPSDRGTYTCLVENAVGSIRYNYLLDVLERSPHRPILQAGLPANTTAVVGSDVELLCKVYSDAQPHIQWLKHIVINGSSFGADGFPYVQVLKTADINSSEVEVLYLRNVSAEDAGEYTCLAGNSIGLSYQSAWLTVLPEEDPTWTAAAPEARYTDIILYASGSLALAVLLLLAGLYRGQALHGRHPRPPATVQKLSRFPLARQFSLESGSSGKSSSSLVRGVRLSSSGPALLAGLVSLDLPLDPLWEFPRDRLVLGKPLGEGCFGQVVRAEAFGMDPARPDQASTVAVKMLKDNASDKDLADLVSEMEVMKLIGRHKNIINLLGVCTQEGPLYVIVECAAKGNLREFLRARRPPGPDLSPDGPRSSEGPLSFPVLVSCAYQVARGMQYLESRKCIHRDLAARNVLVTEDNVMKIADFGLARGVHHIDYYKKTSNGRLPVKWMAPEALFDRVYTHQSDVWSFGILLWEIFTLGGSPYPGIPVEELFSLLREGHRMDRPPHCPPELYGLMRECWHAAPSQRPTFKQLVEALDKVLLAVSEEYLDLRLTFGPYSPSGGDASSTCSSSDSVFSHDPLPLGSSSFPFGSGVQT

[8] = system: A204; experiment: CCK-8 cell proliferation assay; assay type: cell-based; conditions: Homo sapiens, A204; FGFR1 amplification; CCK-8, 72 h; read-out: antiproliferative IC50, A204
Procedure: as §2, §3, §4

[9] = target: T2, FGFR2; experiment: FRET-based Z′-Lyte kinase assay; assay type: biochemical
[10] = system: Ba/F3 stable cells (FGFR1‐V561F/M and other mutant); experiment: CCK-8 proliferation, Ba/F3 stable cells with FGFR1 and mutants (summary); assay type: cell-based; conditions: Mus musculus, BaF3; range over Ba/F3 stable cells
Procedure: The Ba/F3 cell lines stably expressing FGFR1, FGFR1‐V561M, FGFR1‐V561F, FGFR1‐K656N, and FGFR1‐K656E were self‐established through electroporation pCDNA3.1‐TEL plasmids using the Amaxa Cell Line Nucleofector Kit V (Lonza, Cologne, Germany). Stable cell lines were selected by G418 (Merck, USA) and then withdrawal of IL‐3 (R&D). […] Parental Ba/F3 cells were maintained in RPMI 1640 supplemented with 10% FBS, 100 U/ml of penicillin, […] of streptomycin, and 10 ng/ml of IL‐3, while all Ba/F3 stable cell lines were cultured in the same medium without IL‐3.
as §3
There is, however, no commercially available FGFR1 mutant kinase to validate this. Therefore, we constructed Ba/F3 model cells stably expressing FGFR1‐WT, K656E, K656N, V561M, and V561F mutations.

[11] = Mortality and body weight in xenograft studies; assay type: in vivo, CB17‐SCID mice; conditions: 10 or 20 mg/kg q2d, oral gavage, xenograft mice
Text: as §1

[12] = target: T3, FGFR1 (Homo sapiens, UniProt P11362); experiment: FRET-based Z′-Lyte kinase assay; assay type: biochemical
T3 construct: purchased Invitrogen (Waltham, MA, USA)
T3 sequence (P11362 22-822): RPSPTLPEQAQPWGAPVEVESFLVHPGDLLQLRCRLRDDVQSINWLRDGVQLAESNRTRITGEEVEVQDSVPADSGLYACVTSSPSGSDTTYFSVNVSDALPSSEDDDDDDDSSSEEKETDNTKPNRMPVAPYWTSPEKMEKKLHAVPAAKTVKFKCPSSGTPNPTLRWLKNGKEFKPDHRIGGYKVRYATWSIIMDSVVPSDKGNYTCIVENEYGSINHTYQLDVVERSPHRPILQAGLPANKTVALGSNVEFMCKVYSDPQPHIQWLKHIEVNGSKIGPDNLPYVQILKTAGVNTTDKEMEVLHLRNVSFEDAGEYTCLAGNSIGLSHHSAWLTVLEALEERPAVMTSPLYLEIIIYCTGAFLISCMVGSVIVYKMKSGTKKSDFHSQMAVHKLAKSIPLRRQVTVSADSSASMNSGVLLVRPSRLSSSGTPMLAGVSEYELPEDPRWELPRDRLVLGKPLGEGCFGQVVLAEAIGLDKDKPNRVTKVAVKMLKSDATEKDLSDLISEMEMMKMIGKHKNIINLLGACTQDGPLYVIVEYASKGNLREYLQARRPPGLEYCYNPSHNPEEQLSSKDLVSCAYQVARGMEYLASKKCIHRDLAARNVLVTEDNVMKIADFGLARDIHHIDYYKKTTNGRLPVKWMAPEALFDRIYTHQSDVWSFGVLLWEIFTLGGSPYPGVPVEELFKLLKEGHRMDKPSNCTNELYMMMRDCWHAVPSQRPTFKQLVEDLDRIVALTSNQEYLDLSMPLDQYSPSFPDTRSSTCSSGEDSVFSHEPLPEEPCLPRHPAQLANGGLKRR
Procedure: FGFR1 and the Z′‐Lyte kinase assay kit were purchased from Invitrogen (Waltham, MA, USA) and the assays were performed according to the manufacturer's instructions as described previously.[27]

[13] = target: FGFR3 (Homo sapiens, UniProt P22607); experiment: FRET-based Z′-Lyte kinase assay; assay type: biochemical
Chain of FGFR3 (P22607 23-806): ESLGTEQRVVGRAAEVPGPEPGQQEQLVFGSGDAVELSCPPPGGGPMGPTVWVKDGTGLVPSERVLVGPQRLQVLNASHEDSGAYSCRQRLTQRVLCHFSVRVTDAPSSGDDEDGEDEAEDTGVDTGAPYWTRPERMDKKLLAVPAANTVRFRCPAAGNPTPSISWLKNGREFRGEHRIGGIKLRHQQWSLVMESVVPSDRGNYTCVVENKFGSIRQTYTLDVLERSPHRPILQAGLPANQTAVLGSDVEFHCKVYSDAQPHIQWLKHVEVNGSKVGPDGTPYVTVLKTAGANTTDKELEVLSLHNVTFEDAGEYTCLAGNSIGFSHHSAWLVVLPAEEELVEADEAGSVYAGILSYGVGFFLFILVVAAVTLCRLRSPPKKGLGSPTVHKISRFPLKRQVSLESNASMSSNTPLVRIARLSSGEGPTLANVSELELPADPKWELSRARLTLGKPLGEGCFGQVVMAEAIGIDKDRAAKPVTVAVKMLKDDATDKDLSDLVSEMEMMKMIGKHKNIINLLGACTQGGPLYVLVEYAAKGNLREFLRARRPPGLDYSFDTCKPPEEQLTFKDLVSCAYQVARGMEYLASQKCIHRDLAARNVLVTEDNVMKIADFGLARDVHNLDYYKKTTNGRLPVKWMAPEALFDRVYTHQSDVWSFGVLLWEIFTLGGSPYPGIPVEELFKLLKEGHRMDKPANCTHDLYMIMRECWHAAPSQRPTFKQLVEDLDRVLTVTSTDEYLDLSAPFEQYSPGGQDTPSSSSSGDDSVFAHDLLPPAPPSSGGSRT

[14] = system: pAKT in SNU‐16; experiment: Western blot of pAKT; assay type: cell-based; conditions: SNU‐16, FGFR2 overexpressed, 3.7 to 300 nM
Procedure: as §5

[15] = system: pAKT in NCI‐H716; experiment: Western blot of pAKT; assay type: cell-based; conditions: NCI‐H716, FGFR2 overexpressed, 3.7 to 300 nM
Procedure: as §5

[16] = target: T4, FGFR3‐G697C (Homo sapiens, UniProt P22607, G697C); experiment: KINOMEscan binding affinity assay
T4 construct: purchased KINOMEscan™ (commercial assay)
T4 sequence (P22607 23-806 G697C): as the sequence (P22607 23-806) above, with G675C counted along it

## CCN1CCN(c2ccc(Nc3cc(N(C)C(=O)Nc4c(Cl)c(OC)cc(OC)c4Cl)ncn3)cc2)CC1 [BGJ398]
[1]; 30 mg/kg, oral gavage, once every day
  tumor growth inhibition (TGI): 2.4%
[2]; 10 mg/kg, once every day
  tumor growth inhibition (TGI): 64.2%
[3]
  IC50: 8.73 ± 1.93 µM
[4]; 300 nM
  activation of FGFR1 and its signal pathway: no effects

## Cc1ccc(C(=O)Nc2ccc(CN3CCN(C)CC3)c(C(F)(F)F)c2)cc1C#Cc1cnc2[nH]ncc2c1 [GZD824]
[5]
  Kd: 17 ± 5.7 nM
[1]; 20 mg/kg, p.o., q2d
  tumor growth inhibition (TGI): 73.4%
[1]; 12 days
  IHC (pFGFR1) and TUNEL in tumor tissues: inhibits the FGFR1 activation and induces apoptosis
[2]; 20 mg/kg
  tumor growth inhibition (TGI): 76.5%
[2]; 12 days
  IHC (pFGFR1) and TUNEL in tumor tissues: inhibits the FGFR1 activation and induces apoptosis
[6]
  Kd: 15.5 ± 3.5 nM
[7]
  IC50: 30.3 ± 21.7 nM
[8]
  IC50: 24.4 ± 6.2 nM
[9]
  IC50: 2.77 ± 0.082 nM
[9]; Figure 1B curve fit
  EC50: 2.72 nM
[10]
  IC50: 8.1 to 55 nM
[4]; 4 h, 3.7 nM to 300 nM
  FGFR1 phosphorylation, downstream FRS2 and ERK1/2: dose‐dependent inhibition
[11]
  mortality and body weight during experiment: no mortality or significant loss of body weight
[12]
  IC50: 4.14 ± 0.96 nM
[12]; Figure 1B curve fit
  EC50: 4.82 nM
[13]
  IC50: 8.1 ± 0.15 nM
[13]; Figure 1B curve fit
  EC50: 8.2 nM
[14]
  effect on pAKT: strongly inhibit
[15]
  effect on pAKT: strongly inhibit
[16]
  Kd: 39.5 ± 7.8 nM
